Measured values taken from patent US20240148000A1, “METHOD FOR CONTROLLING HARMFUL ARTHROPODS OR HARMFUL NEMATODES USING ZOANTHAMINE” (SUMITOMO CHEMICAL COMPANY, LIMITED, priority 2021, published 2024).

Experiments:
[1] = test system: cat flea (Ctenocephalides felis); test: Test Method 11: coated container contact test, cat flea adults; assay type: in vivo; conditions: 20 mg/m^2 coated on inner face of container, after 2 days
Protocol: (§1) Next, Test Examples are used to show efficacy of the Present compounds on controlling harmful arthropods and harmful nematodes. The following Test Examples were carried out at 25° C. Also, the “untreated group” represents a group where the similar treatment procedure to that of the treated group except not using the test compound is done.
(§2) The test compound is dissolved into acetone containing a surfactant, then the solution is poured into a 20 mL container, the solution is coated uniformly on the inner face of the container so that the test compound will be 20 mg/m^2 and the surfactant will be 40 mg/m^2, and the container is then dried.
Ten (10) cat flea (Ctenocephalides felis) adults are released into the container, and the container is then covered with lid. After the prescribed time, the state of the cat flea is examined, and the mortality is calculated by the following equation.
(§3) Mortality (%)=(Number of dead insects/Number of tested insects)×100
The test was conducted by making the prescribed time 2 days and using each of the below-mentioned Present compounds as a test compound.

[2] = test system: brown planthoppers (Nilaparvata lugens); test: Test Method 5: foliar spray on rice seedling, brown planthoppers; assay type: in vivo; conditions: 200 ppm, sprayed 10 mL/seedling on rice, third-instar larvae, after 6 days
Protocol: as §1
The test compound is made to a formulation according to a similar method to that described in the Formulation Example 5, and thereto is added water containing 0.03 v/v % of Shindain (registered trademark) to prepare a diluted solution containing a prescribed concentration of the test compound.
Rice (Oryza sativa) seedling (on the developmental stage of the second true leaf) is planted in a container, and the diluted solutions are sprayed to the seedling at a ratio of 10 mL/seedling. Thereafter, 20 of third-instar larvae of brown planthoppers (Nilaparvata lugens) are released onto the rice seedling. After 6 days, the number of the surviving insects is examined and the mortality of insects is calculated by the following equation.
Mortality={1−Number of surviving insects/20}×100
The test was conducted by making the prescribed concentration 200 ppm and using each of the below-mentioned Present compounds as a test compound according to the Test Method 5.

[3] = test system: common house mosquito (Culex pipiens pallens) last instar larvae; test: Test Method 9: common house mosquito larvae in diluted solution; assay type: in vivo; conditions: 3.5 ppm in water, Formulation Example 1, last instar larvae, after 1 day
Protocol: as §1
The test compound is made to a formulation according to a similar method to that described in the Formulation Example 1, and thereto is added water to prepare a diluted solution containing a prescribed concentration of the test compound.
Into the diluted solution, 30 last instar larvae of common house mosquito (Culex pipiens pallens) are released, and after 1 day, the state of the common house mosquito larvae is examined, and the mortality of insects is calculated by the following equation.
as §3
The test was conducted by making the prescribed concentration 3.5 ppm and using each of the below-mentioned Present compounds as a test compound according to the Test Method 9.

[4] = test system: common house mosquito (Culex pipiens pallens) female adults; test: Test Method 10: coated container contact test, common house mosquito female adults; assay type: in vivo; conditions: 10 mg/m^2 coated on inner face of container, after 1 day
Protocol: as §1
as §2, with “be 10” for “be 20”
Five (5) common house mosquito (Culex pipiens pallens) female adults are released into the container, and the container is then covered with lid. After the prescribed time, the state of the common house mosquito is examined, and the mortality is calculated by the following equation.
as §3
The test was conducted by making the prescribed time 1 day and using each of the below-mentioned Present compounds as a test compound.

[5] = test system: cotton worm (Spodoptera litura); test: Test Method 1: foliar spray on cabbage seedling, cotton worm larvae; assay type: in vivo; conditions: 200 ppm, sprayed 20 mL/seedling on cabbage, third-instar larvae, after 6 days, Formulation Example 5, 25° C.
Protocol: as §1
(§4) Test compound is made to a formulation according to a similar method to that described in the Formulation Example 5, and thereto is added water containing 0.03 v/v % of Shindain (registered trademark) to prepare a diluted solution containing a prescribed concentration of the test compound.
(§5) Cabbage (Brassicae oleracea) seedling (on the developmental stage of the third to fourth true leaf) is planted in a container, and the diluted solutions are sprayed to the seedling at a ratio of 20 mL/seedling. Thereafter, 10 of third-instar larvae of cotton worm (Spodoptera litura) are released. After 6 days, the number of the surviving insects is counted, and the mortality of insects is calculated by the following equation.
(§6) Mortality (%)=(1−Number of surviving insects/10)×100
The test was conducted by making the prescribed concentration 200 ppm and using each of the below-mentioned Present compounds as a test compound according to the Test Method 1.

[6] = test system: diamondback moth (Plutella xylostella); test: Test Method 2: foliar spray on cabbage seedling, diamondback moth larvae; assay type: in vivo; conditions: third-instar larvae, after 6 days
Protocol: as §1, §4
as §5, with “diamondback moth (Plutella xylostella)” for “cotton worm (Spodoptera litura)”, “released to the container.” for “released.”
as §6
The test was conducted by making the prescribed concentration 200 ppm and using each of the below-mentioned Present compounds as a test compound according to the Test Method 2.
The test was conducted by making the prescribed concentration 500 ppm and using the below-mentioned Present compound as a test compound according to the Test Method 2 except for formulating it according to the Formulation Example 1 instead of the Formulation Example 5.

[7] = test system: southern root-knot nematodes (Meloidogyne incognita); test: Test Example 12: tomato seedlings in soil contaminated with southern root-knot nematodes; assay type: in vivo; conditions: 60 mg in 60 mL: 20 mL mixed with 400 mL contaminated soil, 40 mL irrigated; tomato roots after 28 days; untreated group 5
Protocol: as §1
The Present compound 1 or 2 (60 mg) was dissolved into acetone (600 μL) containing 5% of Tween 20, and then thereto was added water to prepare a solution (60 mL).
The solution (20 mL) and soil (400 mL) contaminated with southern root-knot nematodes (Meloidogyne incognita) were mixed, and roots of healthy tomato (Lycopersicon esculentum) seedlings (third to fourth leaf stage) were transferred to the soil. Shortly after the transfer, the remaining solution (40 mL) was irrigated to the soil of the tomato seedlings.
After 28 days, the roots were pulled out of the soil, washed with water, and the degree of root damage (degree of root-knot) was investigated according to the Zeck's root-knot index (Zeck, W. M. (1971): Pflanzenschutz-Nachichten. Bayer AG, 24, 141-144.).
• 0: No root-knot is observed. • 1: Several small root-knots can be recognized by careful observation. • 2: Several small root-knots similar to 1 can be easily identified. • 3: There are many small root-knots, and some of which are fused. […]

[8] = test system: P388 mouse leukemia cells; conditions: Nonpatent Document 2; cited from earlier work
[9] = 200 ppm, sprayed 20 mL/seedling on cabbage, Formulation Example 5, 25° C.

Compound	mortality [1] [%]	mortality [2] [%]	mortality [3] [%]	mortality [4] [%]	mortality [5] [%]	mortality [6, 9] [%]	root-knot index (Zeck's root-knot index) [7]	mortality ([6]; 500 ppm, Formulation Example 1 instead of 5, sprayed 20 mL/seedling on cabbage) [%]	growth of P388 mouse leukemia cells [8]
CC1=CC(=O)[C@H]2CC(=O)[C@H]3[C@@](C)(C[C@@]45OC(=O)C[C@]3(C)[C@]4(C)CC[C@]34C[C@@H](C)C[C@H](CN35)O4)[C@@H]2C1 [compound 1]	100	100	100	100	100	100	2 (Several small root-knots similar to 1 can be easily identified.)		
CC1=CC(=O)[C@@H]2[C@@H](C1)[C@]1(C)C[C@@]34OC(=O)C[C@@](C)([C@H]1C(=O)[C@@H]2C)[C@]3(C)CC[C@]12C[C@@H](C)C[C@H](CN14)O2 [compound 2]	100	100	100	100	100	100	2 (Several small root-knots similar to 1 can be easily identified.)		
CC1=CC(=O)[C@H]2CC(=O)[C@H]3[C@@](C)(C(=O)[C@@]45OC(=O)C[C@]3(C)[C@]4(C)CC[C@]34C[C@@H](C)C[C@H](CN35)O4)[C@@H]2C1 [compound 3]			100						
CC1=CC(=O)[C@@H]2[C@@H](C1)[C@]1(C)C(=O)[C@@]34OC(=O)C[C@@](C)([C@H]1C(=O)[C@@H]2C)[C@]3(C)CC[C@]12C[C@@H](C)C[C@H](CN14)O2 [compound 4]			100					80	
CC1=CC(=O)[C@H]2CC(=O)[C@H]3[C@@](C)(C[C@@]45OC(=O)C[C@]3(C)[C@]4(C)CC[C@]34C[C@@H](C)C[C@H](CN35)O4)[C@@H]2C1.Cl [compound 5]		100		100	100	100			
CC1=CC(=O)[C@@H]2[C@@H](C1)[C@]1(C)C[C@@]34OC(=O)C[C@@](C)([C@H]1C(=O)[C@@H]2C)[C@]3(C)CC[C@]12C[C@@H](C)C[C@H](CN14)O2.Cl [compound 6]		100		100	100	100			
norzoanthamine [Present compound 1]									inhibits the growth
